Reference: a compilation of properties of binary mixtures (doi:10.1021/je400097b)

Experiment: xn = mol fraction of the nth substance listed
Conditions: 101 kPa

Work on `O` + CC[NH+](C)CC.O=S(=O)([O-])C(F)(F)F yielded a viscosity (293.15 K, x1 = 1) of 1.2 mPa·s.
`CC[NH+](C)CC.O=S(=O)([O-])C(F)(F)F` + O gave a viscosity (293.15 K, x2 = 0.037) of 53.3 mPa·s, a viscosity (293.15 K, x2 = 0.434) of 22.3 mPa·s and a viscosity (293.15 K, x2 = 0.586) of 14.5 mPa·s. For the same molecule, the viscosity (293.15 K, x2 = 0.844) was 4.99 mPa·s, the viscosity (293.15 K, x2 = 0.925) was 2.86 mPa·s and the viscosity (293.15 K, x2 = 0.972) was 1.69 mPa·s. It also gave a viscosity (313.15 K, x2 = 0.434) of 12.1 mPa·s, a viscosity (313.15 K, x2 = 0.586) of 7.98 mPa·s and a viscosity (313.15 K, x2 = 0.759) of 4.38 mPa·s. It also gave a viscosity (313.15 K, x2 = 0.844) of 2.89 mPa·s, a viscosity (313.15 K, x2 = 0.925) of 1.75 mPa·s and a viscosity (313.15 K, x2 = 0.972) of 1.2 mPa·s. The viscosity (333.15 K, x2 = 0.037) was 14.6 mPa·s, the viscosity (333.15 K, x2 = 0.586) was 4.97 mPa·s and the viscosity (333.15 K, x2 = 0.925) was 1.28 mPa·s. For the same molecule, the viscosity (333.15 K, x2 = 0.972) was 1.01 mPa·s, the viscosity (353.15 K, x2 = 0.037) was 9.18 mPa·s and the viscosity (353.15 K, x2 = 0.586) was 3.38 mPa·s. It also gave a viscosity (353.15 K, x2 = 0.844) of 1.45 mPa·s, a viscosity (353.15 K, x2 = 0.925) of 1.08 mPa·s and a viscosity (353.15 K, x2 = 0.972) of 0.91 mPa·s.
